Source: ChEMBL document CHEMBL4837192, “The Bisindole Alkaloids Angustilongines M and A from Alstonia penangiana Induce Mitochondrial Apoptosis and G0/G1 Cell Cycle Arrest in HT-29 Cells through Promotion of Tubulin Polymerization” (J Nat Prod, 2021)

Experiments:
Assay type in all cases: functional, cell-based
HT-29 = assay: Antiproliferative activity against human HT-29 cells cultured as 3D spheroids assessed as inhibition of spheroid formation measured after 48 hrs by MTT assay; conditions: HT-29, 48 h
KB [1] = assay: Cytotoxicity against human vincristine-sensitive KB cells assessed as cell growth inhibition measured after 72 hrs by MTT assay
KB [2] = assay: Cytotoxicity against human vincristine-resistant KB cells assessed as cell growth inhibition measured after 72 hrs by MTT assay

Structure (SMILES)	IC50 (HT-29)	IC50 (KB [1])	IC50 (KB [2])
O=c1[nH]cc(F)c(=O)[nH]1 [FLUOROURACIL]	25900 nM	–	–
CC[C@]1(O)C[C@H]2CN(CCc3c([nH]c4ccccc34)[C@@](C(=O)OC)(c3cc4c(cc3OC)N(C=O)[C@H]3[C@@](O)(C(=O)OC)[C@H](OC(C)=O)[C@]5(CC)C=CCN6CC[C@]43[C@@H]65)C2)C1 [VINCRISTINE]	–	0.8 nM	800 nM
